Assay results published in article PMC12466479, “The Supersulfide-Producing Activity of Rat Cystathionine γ-Lyase Is Irreversibly Inactivated by L-CysNO but Not by L-GSNO” (Antioxidants, 2025).

Columns and labels:
[1] = biological target: T1, Cystathionine γ-lyase (CSE) (Rattus norvegicus, UniProt P18757); experiment: TAP-1 assay of HSNO production from L-CysNO with or without […] PLP; type: biochemical; parameters: gene Cth; recombinant rat CSE, purified from E. coli
[2] = biological target: T1, Cystathionine γ-lyase (CSE); parameters: gene Cth
[3] = biological target: T1, Cystathionine γ-lyase (CSE); experiment: SSP4 fluorescence assay of Cys-SSH production from cystine after preincubation with L-CysNO; also a substrate (HSNO by TAP-1, pyruvate assay); type: biochemical; parameters: gene Cth; recombinant rat CSE expressed in E. coli as GST-CSE, GST tag cleaved
[4] = biological target: T1, Cystathionine γ-lyase (CSE); parameters: gene Cth; remark: listed apart in the source

T1 sequence (P18757 whole entry): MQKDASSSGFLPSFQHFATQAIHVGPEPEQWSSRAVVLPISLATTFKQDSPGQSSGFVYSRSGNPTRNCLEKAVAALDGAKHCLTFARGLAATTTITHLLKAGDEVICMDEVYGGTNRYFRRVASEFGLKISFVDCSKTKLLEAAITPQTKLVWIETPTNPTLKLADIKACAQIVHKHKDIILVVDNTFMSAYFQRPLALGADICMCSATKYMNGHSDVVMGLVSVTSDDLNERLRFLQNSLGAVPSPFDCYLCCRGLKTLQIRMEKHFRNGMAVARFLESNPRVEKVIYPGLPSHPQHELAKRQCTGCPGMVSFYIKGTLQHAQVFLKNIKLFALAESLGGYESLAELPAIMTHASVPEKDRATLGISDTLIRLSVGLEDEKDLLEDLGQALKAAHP

Cc1ncc(COP(=O)(O)O)c(C=O)c1O [PLP, pyridoxal 5′-phosphate]
TAP-1 assay of HSNO production from L-CysNO with or without 50 μM PLP [1]: The PLP-dependent β-lyase activity of CSE toward L-CysNO—but not D-CysNO—in producing HSNO was evident

N[C@@H](CCSC[C@H](N)C(=O)O)C(=O)O [cystathionine]
DTNB assay of cysteine formed from 1 mM cystathionine (γ-lyase activity) [2]: The cysteine produced by CSE from cystathionine was measured by DTNB assay

N[C@@H](CSN=O)C(=O)O [L-CysNO, L-S-nitrosocysteine]
IC50 [3]: 10 µM

N[C@@H](CSSC[C@H](N)C(=O)O)C(=O)O [cystine]
SSP4 fluorescence assay of Cys-SSH formed from 1 mM cystine (β-lyase activity) [4]: The Cys-SSH produced by CSE with cystine as the substrate was measured by using SSP4
